Source: patent publication US8530648B2, “Diaza-spiro[5.5]undecanes” (Novartis AG, priority 2009, dated 2013)

Experiments:
hOx1R [1] = molecular target: T1, hOx1R (Homo sapiens (Human), UniProt O43613); assay: Calcium accumulation in cells (FLIPR), hOx1R; type: cell-based; conditions: for Ki: inhibition of orexin A induced calcium accumulation, Cheng and Prusoff correction
In short: (§1)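 Cells expressing human orexin 1 or 2 receptor, serum-deprived overnight, loaded with Fluo-4-AM (2 μM) plus 0.1 mM probenecid, pH 7.4 HEPES buffer with 1% BSA.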

hOx2R [2] = molecular target: T2, hOx2R (Homo sapiens (Human), UniProt O43614); assay: Calcium accumulation in cells (FLIPR), hOx2R; type: cell-based; conditions: inhibition of orexin A induced calcium accumulation, Cheng and Prusoff correction
T2 sequence (O43614 whole entry): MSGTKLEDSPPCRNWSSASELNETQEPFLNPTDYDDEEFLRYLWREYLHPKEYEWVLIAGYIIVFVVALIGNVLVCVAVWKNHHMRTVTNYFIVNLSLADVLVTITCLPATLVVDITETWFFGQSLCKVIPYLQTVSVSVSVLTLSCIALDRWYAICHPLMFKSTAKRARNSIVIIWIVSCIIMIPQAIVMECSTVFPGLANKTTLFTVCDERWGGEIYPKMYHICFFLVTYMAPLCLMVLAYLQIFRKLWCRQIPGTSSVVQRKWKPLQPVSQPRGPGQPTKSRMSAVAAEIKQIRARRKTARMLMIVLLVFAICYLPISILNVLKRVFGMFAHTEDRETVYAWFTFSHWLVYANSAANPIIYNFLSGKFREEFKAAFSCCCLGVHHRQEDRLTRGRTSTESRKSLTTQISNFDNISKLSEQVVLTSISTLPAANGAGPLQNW
In short: as §1

hOx1R [3] = molecular target: T1, hOx1R; assay: Radioligand binding assay, [125I]orexin A, hOx1R; conditions: radioligand [125I]orexin A, competition
Method: (§2) For crude cell membrane preparations, cells (CHO, Chinese hamster ovary or HEK, human embryonic kidney) expressing human orexin 1 or human orexin 2 receptors, were washed with HEPES (10 mM, pH 7.5), scraped off the culture plates with the same buffer, and centrifuged at 4° C. for 5 min at 2500×g. The cell pellet was either stored at −80° C. or used directly. Before the experiments, cell membranes were re-suspended in binding assay buffer (10 mM HEPES, 0.5% (w/v) bovine serum albumin, pH 7.5) by homogenisation with a Polytron homogeniser at 50 Hz for 20 s. Cell membranes were also used as made available by commercial providers.
(§3) In initial saturation experiments (to calculate Bmax), cell homogenates (150 μl) were incubated with 25-300 pM of the radioligand ([^125I]orexin A, 50 μl), 8 concentrations in triplicates in the presence or absence Orexin A (1 μM, 50 μl) to define non specific binding. Bound radioactivity was measured, and data were analysed with the program XLFIT or Graphpad Prism. Protein concentration was determined according to the Bradford/BioRad Protein Assay Kit.
(§4) In competition experiments, cell homogenates (150 μl) were incubated in assay buffer (10 mM HEPES, pH 7.5, 0.5% (w/v) bovine serum albumin, 5 mM MgCl2, 1 mM CaCl2, and tween 0.05%) for 1 h at room temperature with about 100 pM of the radioligand ([^125I]orexin A, 2100 Ci/mmole, 50 μl), and with various concentrations of compounds of the invention (50 μl) in triplicates; non-specific binding was determined in the presence of Orexin A (1 μM). Reactions were terminated by vacuum filtration, 3 washes of ice cold wash buffer (Tris-HCl pH 7.4/10 mM, with NaCl 154 mM).

hOx2R [4] = molecular target: T2, hOx2R; assay: Radioligand binding assay, [125I]orexin A, hOx2R; conditions: radioligand [125I]orexin A, competition
Method: as §2, §3, §4

T1 sequence (O43613 whole entry): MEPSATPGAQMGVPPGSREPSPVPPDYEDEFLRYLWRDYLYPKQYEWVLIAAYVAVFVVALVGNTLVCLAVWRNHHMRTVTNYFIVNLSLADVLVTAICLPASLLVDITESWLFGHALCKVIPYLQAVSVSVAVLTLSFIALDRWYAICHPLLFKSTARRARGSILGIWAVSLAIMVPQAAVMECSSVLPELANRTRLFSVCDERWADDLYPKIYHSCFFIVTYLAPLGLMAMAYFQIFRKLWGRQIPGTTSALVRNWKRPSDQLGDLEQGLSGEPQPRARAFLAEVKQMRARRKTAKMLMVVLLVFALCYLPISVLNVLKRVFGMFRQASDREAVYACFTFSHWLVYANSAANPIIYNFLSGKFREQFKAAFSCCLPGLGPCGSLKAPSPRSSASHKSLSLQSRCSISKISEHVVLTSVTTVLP

Ki (hOx1R [1])	Ki (hOx2R [2])	Kd (hOx1R [3])	Kd (hOx2R [4])	inhibition at 10 µM (hOx1R [1]; measured at a concentration of 10 μM of compound)	Compound
83 nM	22 nM	426 nM	98 nM		O=C1N(Cc2cccc(-c3cccnc3)c2)CCCC12CCN(c1cnc3ccccc3n1)CC2 [Example 5, 2-(3-(pyridin-3-yl)benzyl)-9-(quinoxalin-2-yl)-2,9-diazaspiro[5.5]undecan-1-one]
1030 nM	92 nM	959 nM	159 nM		O=C1N(Cc2c[nH]c3ncccc23)CCCC12CCN(c1cnc3ccccc3n1)CC2 [Example 57, 2-((1H-pyrrolo[2,3-b]pyridin-3-yl)methyl)-9-(quinoxalin-2-yl)-2,9-diazaspiro[5.5]undecan-1-one]
1560 nM	88 nM	4320 nM	181 nM		Cc1onc(-c2ccccc2)c1CN1CCCC2(CCN(c3cnc4ccccc4n3)CC2)C1=O [Example 34, 2-((5-methyl-3-phenylisoxazol-4-yl)methyl)-9-(quinoxalin-2-yl)-2,9-diazaspiro[5.5]undecan-1-one]
20 nM	3 nM	36 nM	12 nM		O=C1CCCC2(CCN(c3nc4ccccc4o3)CC2)N1Cc1cccc2[nH]ccc12 [Example 42, 1-((1H-indol-4-yl)methyl)-9-(benzo[d]oxazol-2-yl)-1,9-diazaspiro[5.5]undecan-2-one]
482 nM	30 nM	360 nM	34 nM		O=C1N(Cc2cccc3ccccc23)CCCC12CCN(c1cnc3ccccc3n1)CC2 [Example 2, 2-(naphthalen-1-ylmethyl)-9-(quinoxalin-2-yl)-2,9-diazaspiro[5.5]undecan-1-one]
13 nM	1 nM	17 nM	7 nM		O=C1CCCC2(CCN(c3cnc4ccccc4n3)CC2)N1Cc1cccc2[nH]ccc12 [Example 38, 1-((1H-indol-4-yl)methyl)-9-(Quinoxalin-2-yl)-1,9-diazaspiro[5.5]undecan-2-one]
904 nM	35 nM	2350 nM	413 nM		O=C1N(Cc2cccc3c2OCO3)CCCC12CCN(c1cnc3ccccc3n1)CC2 [Example 9, 2-(benzo[d][1,3]dioxol-4-ylmethyl)-9-(quinoxalin-2-yl)-2,9-diazaspiro[5.5]undecan-1-one]
		> 10000 nM	9870 nM		O=C1N(Cc2ccc3ccccc3c2)CCCC12CCN(c1cnc3ccccc3n1)CC2 [Example 7, 2-(naphthalen-2-ylmethyl)-9-(quinoxalin-2-yl)-2,9-diazaspiro[5.5]undecan-1-one]
657 nM	11 nM	1410 nM	96 nM		O=C1CCCC2(CCN(c3nc4cc(Cl)ccc4o3)CC2)N1Cc1cccc2[nH]ccc12 [Example 136, 1-((1H-indol-4-yl)methyl)-9-(5-chlorobenzo[d]oxazol-2-yl)-1,9-diazaspiro[5.5]undecan-2-one]
740 nM	84 nM	702 nM	169 nM		O=C1N(Cc2cccc(Cl)c2)CCCC12CCN(c1cnc3ccccc3n1)CC2 [Example 27, 2-(3-chlorobenzyl)-9-(quinoxalin-2-yl)-2,9-diazaspiro[5.5]undecan-1-one]
1760 nM	213 nM	3280 nM	211 nM		O=C1N(Cc2cccc3cccnc23)CCCC12CCN(c1cnc3ccccc3n1)CC2 [Example 21, 2-(quinolin-8-ylmethyl)-9-(quinoxalin-2-yl)-2,9-diazaspiro[5.5]undecan-1-one]
420 nM	47 nM	634 nM	175 nM		O=C1N(Cc2cccc(-c3ccccn3)c2)CCCC12CCN(c1cnc3ccccc3n1)CC2 [Example 54, 2-(3-(pyridin-2-yl)benzyl)-9-(quinoxalin-2-yl)-2,9-diazaspiro[5.5]undecan-1-one]
474 nM	63 nM	630 nM	130 nM		O=C1N(Cc2cccc3[nH]ccc23)CCCC12CCN(c1cnc3ccccc3n1)CC2 [Example 3, 2-((1H-indol-4-yl)methyl)-9-(quinoxalin-2-yl)-2,9-diazaspiro[5.5]undecan-1-one]
365 nM	35 nM	776 nM	62 nM		Cc1cc2c(CN3CCCC4(CCN(c5cnc6ccccc6n5)CC4)C3=O)cccc2[nH]1 [Example 13, 2-((2-methyl-1H-indol-4-yl)methyl)-9-(quinoxalin-2-yl)-2,9-diazaspiro[5.5]undecan-1-one]
		> 10000 nM	6100 nM		Cn1c(N2CCC3(CCCN(Cc4cccc5ccccc45)C3=O)CC2)nc2ccccc21 [Example 12, 9-(1-methyl-1H-benzo[d]imidazol-2-yl)-2-(naphthalen-1-ylmethyl)-2,9-diazaspiro[5.5]undecan-1-one]
948 nM	112 nM	1380 nM	211 nM		O=C1N(Cc2cccc(C(F)(F)F)c2)CCCC12CCN(c1cnc3ccccc3n1)CC2 [Example 14, 9-(quinoxalin-2-yl)-2-(3-(trifluoromethyl)benzyl)-2,9-diazaspiro[5.5]undecan-1-one]
2740 nM	280 nM	4480 nM	1090 nM		O=C1N(Cc2ccccc2C(F)(F)F)CCCC12CCN(c1cnc3ccccc3n1)CC2 [Example 23, 9-(quinoxalin-2-yl)-2-(2-(trifluoromethyl)benzyl)-2,9-diazaspiro[5.5]undecan-1-one]
	1070 nM	3360 nM	439 nM	0%	O=C1N(Cc2ccccc2)CCCC12CCN(c1nc3ccccc3[nH]1)CC2 [Example 10, 9-(1H-benzo[d]imidazol-2-yl)-2-benzyl-2,9-diazaspiro[5.5]undecan-1-one]
1360 nM	46 nM	2060 nM	121 nM		O=C1N(Cc2cccc3c2OCCO3)CCCC12CCN(c1cnc3ccccc3n1)CC2 [Example 4, 2-((2,3-dihydrobenzo[b][1,4]dioxin-5-yl)methyl)-9-(quinoxalin-2-yl)-2,9-diazaspiro[5.5]undecan-1-one]
518 nM	51 nM	1320 nM	59 nM		O=C1N(Cc2cccc(-c3ccccc3)c2)CCCC12CCN(c1cnc3ccccc3n1)CC2 [Example 22, 2-(biphenyl-3-ylmethyl)-9-(quinoxalin-2-yl)-2,9-diazaspiro[5.5]undecan-1-one]
77 nM	16 nM	100 nM	36 nM		Cc1ccc(C)c(CN2C(=O)CCCC23CCN(c2cnc4ccccc4n2)CC3)c1 [Example 41, 1-(2,5-dimethylbenzyl)-9-(quinoxalin-2-yl)-1,9-diazaspiro[5.5]undecan-2-one]
1480 nM	371 nM	1310 nM	300 nM		O=C1N(Cc2ccccc2)CCCC12CCN(c1cnc3ccccc3n1)CC2 [Example 6, 2-benzyl-9-(quinoxalin-2-yl)-2,9-diazaspiro[5.5]undecan-1-one]
1380 nM	155 nM	1400 nM	288 nM		Cc1cccc(CN2CCCC3(CCN(c4cnc5ccccc5n4)CC3)C2=O)c1 [Example 15, 2-(3-methylbenzyl)-9-(quinoxalin-2-yl)-2,9-diazaspiro[5.5]undecan-1-one]
		5250 nM	3210 nM		O=C1N(Cc2ccc3c(c2)OCCO3)CCCC12CCN(c1cnc3ccccc3n1)CC2 [Example 25, 2-((2,3-dihydrobenzo[b][1,4]dioxin-6-yl)methyl)-9-(quinoxalin-2-yl)-2,9-diazaspiro[5.5]undecan-1-one]
		> 10000 nM	5240 nM		O=C1N(Cc2ccc(C(F)(F)F)cc2)CCCC12CCN(c1cnc3ccccc3n1)CC2 [Example 24, 9-(quinoxalin-2-yl)-2-(4-(trifluoromethyl)benzyl)-2,9-diazaspiro[5.5]undecan-1-one]
